Assay results as given in article PMC12049818, “Identification of NUV-244 as a PNPLA3 I148M degrading small molecule” (iScience, 2025).

How the values were obtained:
[1] = molecular target: T1, PNPLA3 (Homo sapiens, UniProt Q9NST1); assay: Huh7 untagged PNPLA3 immunofluorescence on lipid droplets; format: cell-based; details: anti-PNPLA3 IF; representative curve, Figure 3E
T1 construct: host or cells: Huh7
T1 sequence (Q9NST1 1-481): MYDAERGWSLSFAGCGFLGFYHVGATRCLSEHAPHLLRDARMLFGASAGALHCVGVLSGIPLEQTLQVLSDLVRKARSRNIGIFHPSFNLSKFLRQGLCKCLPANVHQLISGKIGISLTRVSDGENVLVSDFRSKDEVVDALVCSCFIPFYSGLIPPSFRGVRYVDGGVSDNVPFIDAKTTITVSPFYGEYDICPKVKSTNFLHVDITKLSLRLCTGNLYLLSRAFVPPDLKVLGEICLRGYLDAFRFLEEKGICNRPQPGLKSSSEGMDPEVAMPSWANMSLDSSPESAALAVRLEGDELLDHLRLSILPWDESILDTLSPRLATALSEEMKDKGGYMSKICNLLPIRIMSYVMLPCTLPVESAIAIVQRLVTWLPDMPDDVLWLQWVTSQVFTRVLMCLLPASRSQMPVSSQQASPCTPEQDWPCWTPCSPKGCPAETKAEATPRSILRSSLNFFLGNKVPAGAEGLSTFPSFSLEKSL
Experimental: Even though C-terminal tagging is reported not to interfere with PNPLA3 localization,[20] we established an assay to exclude the possibility that C-terminal tagging of PNPLA3 with tagRFP could alter PNPLA3 response to NUV-244 on lipid droplets. For this we generated Huh7 cell lines that express untagged variants of PNPLA3 I148M or PNPLA3 WT and visualized PNPLA3 on lipid droplets by immunofluorescence (Figures 3C, 3D, and S3A).
Cells were fixed with 4% paraformaldehyde for 15 minutes at room temperature. Cells were blocked with 0.2 M glycine, 0.1 mg/mL saponin, and 30 mg/mL bovine serum albumin (BSA) (all Sigma Aldrich) in PBS for 1 hour. Cells were washed 1x with washing buffer (0,1 mg/ml saponin + 1 mg/ml Bovine serum albumin) using a Blue Washer (Blue Cat Bio). Mouse anti-human ADPN (PNPLA3, C-8, #sc-390252, Santa Cruz) and rabbit anti-human PNPLA2 (Sigma Aldrich, #HPA055173-25UL) primary antibodies and appropriate secondary antibodies conjugated with Alexa-Fluor 647 (Jackson ImmunoResearch) were used. […]
Images were acquired by an Opera Phenix confocal spinning disc microscope system (Revvity, Waltham, MA, USA) with a 20x or 40x water objective at 405 nm (Hoechst), 488 nm (BODIPY) and 647 nm. Quantification was carried out with the Harmony (Revvity, Waltham, MA, USA) or MetaXpress software (Molecular Devices). […]

[2] = system: Huh7 cells; assay: Total nuclear count in Huh7 cells; format: cell-based, human; details: effective concentrations
Experimental: Indeed, NUV-244 has no effect on total nuclear count at effective concentrations in Huh7 cells and we frequently observed mitotic cells in the Hoechst channel even after 24h incubation (data not shown). This indicates low toxicity of NUV-244 at effective concentrations. We validated this by recording the growth curves of different cell lines upon NUV-244 incubation and found no effects of 1μM or 5μM NUV-244 on the proliferative capacity of Hep3B cells, or Huh7 and LX-2 cells compared to DMSO treated cells (Figure 6A). PNPLA3 I148M expression has been reported to sensitize cells against lipotoxicity and to induce mitochondrial dysfunction.[32]^,[34]^,[35]^,[36]^,[37]
Assay plates were evaluated based on Z’ scores (>0.6) and signal-to-background ratio (>12) using Genedata Screener® for HTS and Condoseo modules (Genedata, Switzerland). Normalization, quality control, and fitting curves for EC50 determination of tested compounds were performed with Genedata Screener® for high-content screening and Genedata Condoseo modules (Genedata AG, Basel, Switzerland). More than 820K cpds were screened on 791 1536W plates in 11 runs covering three weeks of primary HTS. Automated image analysis routines were set up to quantify the number, morphology and intensity of nuclei, lipid droplets and the intensity of PNPLA3 I148M-tagRFP on lipid droplets. […]

EC50 [1]: 341 nM
effect on total nuclear count [2]: no effect
SMILES: Cc1cccc(Cc2nc(C)c(C(=O)Nc3cc(O)ccc3Cl)s2)c1 [NUV-244]
